Experimental data taken from patent US8778966B2, “Quinolinone derivatives as PARP and tank inhibitors” (Janssen Pharmaceutica, NV, priority 2007, dated 2014).
Where two headings read alike, the source gives them in different places.

Tests used:
[1] = tested on: HCT116 cells; test: Antiproliferative activity, Alamar Blue assay, HCT116 cells; assay type: cell-based, human; conditions: Homo sapiens, HCT-116, HCT116 cells, read-out: HCT116 antiproliferative activity pIC50 (converted)
Procedure, shortened: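 Readout is resazurin fluorescence (ex 540, em 590 nm) after a 4 h dye incubation at 37 °C, following 4-day compound treatment of HCT116 cells plated 24 h earlier. Results expressed as % viable cells versus untreated; pIC50 derived from probit-fitted IC50.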

[2] = tested on: PC-3 cells; test: Antiproliferative activity, Alamar Blue assay, PC-3 cells; assay type: cell-based, human; conditions: Homo sapiens, PC-3, PC3 cells, read-out: PC3 antiproliferative activity pIC50 (converted)
Procedure, shortened: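 Resazurin-based fluorescence (540 nm ex/590 nm em) measured after 4-day compound treatment plus 24 hrs dye incubation at 37° C. Cells plated at 4.5×10^3 cells/ml, adhered 24 hr first. pIC50 from probit-derived IC50 on % viable cells versus untreated, triplicate wells.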

Cc1cc2ccc(C(C)(C#N)Cc3cccc(C#N)c3)cc2[nH]c1=O (stereo not shown) [Compound 34]
IC50 [1]: 200 nM
IC50 [2]: 631 nM

CCc1cc2ccc(C(C)(C#N)Cc3cc(OC)nc(C)n3)cc2[nH]c1=O (stereo not shown) [Compound 366]
IC50 ([1]; Alamar Blue): 631 nM
IC50 ([2]; Alamar Blue): 631 nM

CCc1cc2ccc(C(C)(C#N)Cc3cccc(CN)n3)cc2[nH]c1=O (stereo not shown) [Compound 221]
IC50 ([1]; Alamar Blue): 1260 nM
IC50 ([2]; Alamar Blue): 1000 nM

CCc1cc2cc(OCCOC)c(C(C)(C#N)Cc3cccc(C#N)c3)cc2[nH]c1=O (stereo not shown) [Compound 182]
IC50 ([1]; Alamar Blue): 6310 nM
IC50 ([2]; Alamar Blue): 5010 nM

CCOc1cc(OCC)nc(CC(C)(C#N)c2ccc3cc(CC)c(=O)[nH]c3c2)n1 (stereo not shown) [Compound 309]
IC50 ([1]; Alamar Blue): 1000 nM
IC50 ([2]; Alamar Blue): 2000 nM

CCc1cc2ccc(C(C)(C#N)Cc3cccc(C#CCO)c3)cc2[nH]c1=O (stereo not shown) [Compound 183]
IC50 ([1]; Alamar Blue): 63.1 nM
IC50 ([2]; Alamar Blue): 316 nM

CCc1cc2ccc(C(C)(C#N)Cc3cccc(Br)n3)cc2[nH]c1=O (stereo not shown) [Compound 344]
IC50 ([1]; Alamar Blue): 316 nM
IC50 ([2]; Alamar Blue): 631 nM

CCc1cc2ccc(C(C)(C#N)Cc3cc(OCCOC)nc(Cl)n3)cc2[nH]c1=O (stereo not shown) [Compound 367]
IC50 ([1]; Alamar Blue): 2510 nM
IC50 ([2]; Alamar Blue): 3980 nM

CCc1cc2ccc(C(C)(C#N)Cc3cccc(OCCO)c3)cc2[nH]c1=O (stereo not shown) [Compound 262]
IC50 ([1]; Alamar Blue): 251 nM
IC50 ([2]; Alamar Blue): 501 nM

CCc1cc2ccc(C(C)(C#N)Cc3cccc(C#CCOC)c3)cc2[nH]c1=O (stereo not shown) [Compound 297]
IC50 ([1]; Alamar Blue): 398 nM
IC50 ([2]; Alamar Blue): 1000 nM

CCc1cc2cc(F)c(C(C)(C#N)Cc3cccc(C#N)c3)cc2[nH]c1=O (stereo not shown) [Compound 175]
IC50 ([1]; Alamar Blue): 631 nM
IC50 ([2]; Alamar Blue): 1000 nM

CCc1cc2ccc(C(C)(C#N)CN(C)Cc3ccccc3)cc2[nH]c1=O (stereo not shown) [Compound 189]
IC50 ([1]; Alamar Blue): 1260 nM
IC50 ([2]; Alamar Blue): 3160 nM

CCc1cc2ccc(C(C)(C#N)Cc3cccc(OC[C@@H](O)CO)c3)cc2[nH]c1=O (stereo partly shown) [Compound 56]
IC50 ([1]; Alamar Blue): 3160 nM
IC50 ([2]; Alamar Blue): 6310 nM

CCCn1ccnc1CC(C)(C#N)c1ccc2cc(CC)c(=O)[nH]c2c1 (stereo not shown) [Compound 335]
IC50 ([1]; Alamar Blue): 5010 nM
IC50 ([2]; Alamar Blue): 10000 nM

CCc1cc2ccc(C(C)(C#N)Cc3cccc(C#CCN(C)C)c3)cc2[nH]c1=O (stereo not shown) [Compound 298]
IC50 ([1]; Alamar Blue): 2510 nM
IC50 ([2]; Alamar Blue): 6310 nM

CCc1cc2ccc(C(C)(C#N)Cc3cc(N(C)C)nc(Cl)n3)cc2[nH]c1=O (stereo not shown) [Compound 364]
IC50 ([1]; Alamar Blue): 1260 nM
IC50 ([2]; Alamar Blue): 794 nM

Cc1cc2ccc([C@@](C)(C#N)Cc3cccc(C#N)c3)cc2[nH]c1=O [Compound 35]
IC50 [1]: 7940 nM
IC50 [2]: > 10000 nM
